Laboratory results taken from patent US20230339981A1, “KRAS G12D MODULATING COMPOUNDS” (priority 2022, published 2023).

Tests used:
GP2D (KRAS G12D) cells = assay: 2D cell viability assay (CellTiter-Glo); type: cell-based; details: GP2d, 96 h, 4 days
Outline: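 Viability was read by CellTiter-Glo after 4 days at 37 °C of 2D culture of KRAS G12D GP2D cells (1000/well, RPMI, 10% FBS) on pre-spotted threefold compound dilutions. EC50 was fitted with a sigmoidal dose-response model as the point of half-maximal luminescence loss.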

AsPC-1 (KRAS G12D) cells = assay: 3D cell viability assay (spheroids, CellTiter-Glo 3D); type: cell-based; details: Homo sapiens, ASPC1, 96 h, AsPC-1 cells, 3D spheroids, 4 days
Experimental: Example C. 3D Cell Viability Assay
Compounds were tested in a 384-well format for their ability to inhibit the viability of AsPC-1 (KRAS G12D) cells in 3D assays. On day 0, 1000 cells/well (80 μL volume per well) in DMEM with 10% FBS, and Penicillin-Streptomycin-Glutamine were plated in 384-well Ultra-Low Attachment Spheroid Microplates (Corning, Catalog #3830) on the BioTEK EL406 liquid dispenser with a 5 μL dispensing cassette (BioTek 7170011). The plates were incubated at 37° C., 5% CO2 for 3 days to allow spheroid formation. On day 3, compounds were serially diluted (1:3) in DMSO. The Biomek FX was used to add 400 nL of test molecule per well. The plates were incubated at 37° C., 5% CO2 for 4 days before addition of CellTiter-Glo 3D (Promega, Catalog #9683) reagent and measurement of luminescence signal. EC50 values were defined as the compound concentration that causes a 50% decrease in luminescence signal and were calculated using a sigmoidal dose-response model to generate curve fits.

GDP-loaded KRAS G12D = GDP-loaded KRAS G12D (Homo sapiens (Human), UniProt P01116, G12D); assay: KRAS G12D (GDP) biochemical assay (TR-FRET probe displacement); type: binding; details: 2 hours
GDP-loaded KRAS G12D, sequence (P01116-2 other isoform, or with tags, fused parts or gaps G12D): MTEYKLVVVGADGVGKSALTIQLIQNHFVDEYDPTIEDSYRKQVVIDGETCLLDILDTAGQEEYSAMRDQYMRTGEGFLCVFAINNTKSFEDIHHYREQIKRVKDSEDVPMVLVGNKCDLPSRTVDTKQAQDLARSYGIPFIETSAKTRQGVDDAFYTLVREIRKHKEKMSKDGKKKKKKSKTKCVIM
Outline: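 TR-FRET probe displacement: 1:3 DMSO serial dilutions pre-incubated 30 min with GDP-bound KRAS G12D, followed by Eu-streptavidin/probe for 2 h at room temperature (Hepes pH 7.4, NaCl, MgCl2, Tween-20 buffer). IC50 defined as concentration halving TR-FRET ratio, from sigmoidal dose-response fit.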

Structure (SMILES) | EC50 (GP2D (KRAS G12D) cells) | EC50 (AsPC-1 (KRAS G12D) cells) | IC50 (GDP-loaded KRAS G12D)
C#Cc1c(F)ccc2cc(O)cc(-c3nc4c5c(nc(OC[C@@]67CCCN6[C@H](COc6cccc(S(F)(F)(F)(F)F)c6)CC7)nc5c3F)N3C[C@H]5CC[C@H](N5)[C@H]3CC4)c12 [Example 104, 5-ethynyl-6-fluoro-4-((5aR,6S,9R)-1-fluoro-12-(((3S,7aS)-3-((3-(pentafluoro-λ6-sulfaneyl)phenoxy)methyl)tetrahydro-1H-pyrrolizin-7a(5H)-yl)methoxy)-4,5,5a,6,7,8,9,10-octahydro-3,10a,11,13,14-pentaaza-6,9-methanonaphtho[1,8-ab]heptalen-2-yl)naphthalen-2-ol] | 8.7 nM | 53 nM | 0.8 nM
C#Cc1c(F)ccc2cc(O)cc(-c3nc4c5c(nc(OCC6(CN7CCC(OC(F)(F)F)CC7)CC6)nc5c3F)N3C[C@H]5CC[C@H](N5)[C@H]3CC4)c12 [Example 106, 5-ethynyl-6-fluoro-4-((5aR,6S,9R)-1-fluoro-12-((1-((4-(trifluoromethoxy)piperidin-1-yl)methyl)cyclopropyl)methoxy)-4,5,5a,6,7,8,9,10-octahydro-3,10a,11,13,14-pentaaza-6,9-methanonaphtho[1,8-ab]heptalen-2-yl)naphthalen-2-ol] | 1.9 nM | 8.2 nM | 0.2 nM
C#Cc1c(F)ccc2cccc(-c3nc4c5c(nc(OC[C@@]67CCCN6C[C@H](F)C7)nc5c3F)N3C[C@H]5CC[C@H](N5)C3C[C@@H]4C)c12 (stereo in doubt) [Example 93, (4S,5aS,6S,9R)-2-(8-ethynyl-7-fluoronaphthalen-1-yl)-1-fluoro-12-(((2R,7aS)-2-fluorotetrahydro-1H-pyrrolizin-7a(5H)-yl)methoxy)-4-methyl-4,5,5a,6,7,8,9,10-octahydro-3,10a,11,13,14-pentaaza-6,9-methanonaphtho[1,8-ab]heptalene] | 26.6 nM | 82 nM | 2.5 nM
C#Cc1c(F)ccc2cccc(-c3nc4c5c(nc(OC[C@@]67CCCN6C[C@H](F)C7)nc5c3F)N3C[C@H]5CC[C@H](N5)[C@H]3C[C@H]4F)c12 [Example 173, (4R,5aR,6S,9R)-2-(8-ethynyl-7-fluoronaphthalen-1-yl)-1,4-difluoro-12-(((2R,7aS)-2-fluorotetrahydro-1H-pyrrolizin-7a(5H)-yl)methoxy)-4,5,5a,6,7,8,9,10-octahydro-3,10a,11,13,14-pentaaza-6,9-methanonaphtho[1,8-ab]heptalene] | 4.2 nM | 100 nM | < 0.1 nM
C#Cc1c(F)ccc2cc(O)cc(-c3nc4c5c(nc(OCC6(CN7CCCOCC7)CC6)nc5c3F)N3C[C@H]5CC[C@H](N5)[C@H]3CO4)c12 [Example 35, 4-((5aS,6S,9R)-12-((1-((1,4-oxazepan-4-yl)methyl)cyclopropyl)methoxy)-1-fluoro-5a,6,7,8,9,10-hexahydro-5H-4-oxa-3,10a,11,13,14-pentaaza-6,9-methanonaphtho[1,8-ab]heptalen-2-yl)-5-ethynyl-6-fluoronaphthalen-2-ol] | 6 nM | 17 nM | 0.3 nM
C#Cc1c(F)ccc2cccc(-c3nc4c5c(nc(OC[C@@]67CCCN6C[C@H](F)C7)nc5c3F)N3C[C@H]5CC[C@H](N5)[C@H]3CO4)c12 [Example 4, (5aS,6S,9R)-2-(8-ethynyl-7-fluoronaphthalen-1-yl)-1-fluoro-12-(((2R,7aS)-2-fluorotetrahydro-1H-pyrrolizin-7a(5H)-yl)methoxy)-5a,6,7,8,9,10-hexahydro-5H-4-oxa-3,10a,11,13,14-pentaaza-6,9-methanonaphtho[1,8-ab]heptalene] | 45 nM | 92 nM | 4 nM
